Consider 43 compounds from US20110306597A1, “Nicotinamide Derivatives” (priority 2008, published 2011).

Structures are written as SMILES.

Sequence of human recombinant H-PGDS (O60760 whole entry): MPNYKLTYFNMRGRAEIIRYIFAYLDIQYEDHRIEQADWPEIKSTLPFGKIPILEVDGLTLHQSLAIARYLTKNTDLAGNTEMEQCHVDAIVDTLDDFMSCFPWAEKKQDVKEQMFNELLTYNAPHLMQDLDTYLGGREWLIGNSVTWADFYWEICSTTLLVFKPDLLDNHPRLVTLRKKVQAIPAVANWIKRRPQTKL

The assay addresses human recombinant H-PGDS (Homo sapiens, UniProt O60760). The assay can be described thus: Fluorescence Intensity h-PGDS TBA Enzyme Assay. Type of assay: biochemical. The following applies: 1:175,000 human recombinant H-PGDS, highest inhibitor concentration typically 1 μM. Put shortly:
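Recombinant human H-PGDS preincubated 10 min at room temperature with inhibitor in 100 mM Tris pH 8.0, 100 μM MgCl2, 2.5 mM glutathione, 0.5% DMSO; 5.0 μM PGH2 added, stopped after 42 s with FeCl2/citric acid. Remaining PGH2 measured as MDA–TBA fluorescence (ex 530/em 565 nm); IC50 by 4-parameter fit, 11 concentrations.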
Consider `CC(C)c1cc(CNC(=O)c2ccc(-c3cccc(F)c3)nc2)on1` [Example 127, 6-(3-Fluorophenyl)-N-[(3-isopropylisoxazol-5-yl)methyl]nicotinamide], for which the half-maximal inhibitory concentration (IC50) was 30.3 nM.

Consider `CC(NC(=O)c1ccc(-c2cccc(F)c2)nc1)C1CC1` (stereo not shown) [Example 128, N-(1-Cyclopropylethyl)-6-(3-fluorophenyl)nicotinamide], for which the IC50 turned out to be 28.3 nM.

With `C[C@H](O)CNC(=O)c1ccc(-c2cccc(F)c2)nc1` [Example 129, 6-(3-Fluorophenyl)-N-[(2S)-2-hydroxypropyl]nicotinamide], the IC50 is 92 nM.

As to `Cc1c[nH]c(CCNC(=O)c2ccc(-c3cccc(F)c3)nc2)n1` [Example 130, 6-(3-Fluorophenyl)-N-[2-(4-methyl-1H-imidazol-2-yl)ethyl]nicotinamide], the IC50 came out at 39.4 nM.

Turning to `Cc1cc(C)n(CCCNC(=O)c2ccc(-c3cccc(F)c3)nc2)n1` [Example 131, N-[3-(3,5-Dimethyl-1H-pyrazol-1-yl)propyl]-6-(3-fluorophenyl)nicotinamide], the half-inhibitory concentration (IC50) turned out to be 27.2 nM.

As to `Cc1ncsc1CCNC(=O)c1ccc(-c2cccc(F)c2)nc1` [Example 132, 6-(3-Fluorophenyl)-N-[2-(4-methyl-1,3-thiazol-5-yl)ethyl]nicotinamide], the IC50 was found to be 6.36 nM.

Turning to `O=C(NCc1nc(-c2ccccc2)no1)c1ccc(-c2cccc(F)c2)nc1` [Example 133, 6-(3-Fluorophenyl)-N-[(3-phenyl-1,2,4-oxadiazol-5-yl)methyl]nicotinamide], the IC50 stood at 59.2 nM.

Turning to `CC(C)(C)OCCNC(=O)c1ccc(-c2cccc(F)c2)nc1` [Example 134, N-(2-tert-Butoxyethyl)-6-(3-fluorophenyl)nicotinamide], the IC50 was determined as 47.7 nM.

Take `C=CCNC(=O)c1ccc(-c2cccc(F)c2)nc1` [Example 135, N-Allyl-6-(3-fluorophenyl)nicotinamide]: the IC50 turned out to be 46.5 nM.

Take `O=C(NC1CCCCNC1=O)c1ccc(-c2cccc(F)c2)nc1` (stereo not shown) [Example 136, 6-(3-Fluorophenyl)-N-(2-oxoazepan-3-yl)nicotinamide]: the IC50 was 3.51 nM.

For `CCOC(=O)CCCCCNC(=O)c1ccc(-c2cccc(F)c2)nc1` [Example 137, Ethyl 6-({[6-(3-fluorophenyl)pyridin-3-yl]carbonyl}amino)hexanoate], the IC50 turned out to be 11.2 nM.

Regarding `Cc1nnc(C(C)NC(=O)c2ccc(-c3cccc(F)c3)nc2)[nH]1` (stereo not shown) [Example 138, 6-(3-Fluorophenyl)-N-[1-(5-methyl-4H-1,2,4-triazol-3-yl)ethyl]nicotinamide], the IC50 was 287 nM.

Regarding `O=C(NCC1(O)CCSCC1)c1ccc(-c2cccc(F)c2)nc1` [Example 139, 6-(3-Fluorophenyl)-N-[(4-hydroxytetrahydro-2H-thiopyran-4-yl)methyl]nicotinamide], the IC50 worked out at 39 nM.

As to `O=C(NCC1(O)CCCC1)c1ccc(-c2cccc(F)c2)nc1` [Example 140, 6-(3-Fluorophenyl)-N-[(1-hydroxycyclopentyl)methyl] nicotinamide], the IC50 is 32 nM.

Consider `O=C(NCC1(O)CCC1)c1ccc(-c2cccc(F)c2)nc1` [Example 141, 6-(3-Fuorophenyl)-N-[(1-hydroxycyclobutyl)methyl] nicotinamide], for which the IC50 came out at 34.5 nM.

`COCCN1CCC2(CC1)CC(NC(=O)c1ccc(-c3cccc(F)c3)nc1)CO2` (stereo not shown) [Example 142, 6-(3-Fluorophenyl)-N-[8-(2-methoxyethyl)-1-oxa-8-azaspiro[4.5]dec-3-yl]nicotinamide]: the IC50 is 25.2 nM.

On to `Cc1cc(C)nc(CCNC(=O)c2ccc(-c3cccc(F)c3)nc2)n1` [Example 143, N-[2-(4,6-Dimethylpyrimidin-2-yl)ethyl]-6-(3-fluorophenyl)nicotinamide], for which the IC50 turned out to be 11 nM.

With `CN1CCN(CC(NC(=O)c2ccc(-c3cccc(F)c3)nc2)c2ccccc2)CC1` (stereo not shown) [Example 144, 6-(3-Fluorophenyl)-N-[2-(4-methylpiperazin-1-yl)-1-phenylethyl]nicotinamide], the IC50 came to 109 nM.

For the compound `CCOC(=O)C(C)(C)NC(=O)c1ccc(-c2cccc(F)c2)nc1` [Example 145, Ethyl N-{[6-(3-fluorophenyl)pyridin-3-yl]carbonyl}-2-methylalaninate], the IC50 is 223 nM.

As to `O=C(NCc1nc2cc(F)ccc2[nH]1)c1ccc(-c2cccc(F)c2)nc1` [Example 146, N-[(5-Fluoro-1H-benzimidazol-2-yl)methyl]-6-(3-fluorophenyl)nicotinamide], the IC50 amounted to 34 nM.

Take `COC(=O)[C@@H](NC(=O)c1ccc(-c2cccc(F)c2)nc1)[C@@H](C)O` [Example 147, Methyl N-{[6-(3-fluorophenyl)pyridin-3-yl]carbonyl}-L-threoninate]: the IC50 was 381 nM.

As for `O=C(NCCN1CCNC1=O)c1ccc(-c2cccc(F)c2)nc1` [Example 148, 6-(3-Fluorophenyl)-N-[2-(2-oxoimidazolidin-1-yl)ethyl]nicotinamide], the half-maximal inhibitory concentration (IC50) was determined as 32 nM.

Regarding `O=C(NCCCCO)c1ccc(-c2cccc(F)c2)nc1` [Example 149, 6-(3-Fluorophenyl)-N-(4-hydroxybutyl)nicotinamide], the IC50 was found to be 20.1 nM.

For the compound `O=C(NC1COC2(CCN(c3nc4ccccc4[nH]3)CC2)C1)c1ccc(-c2cccc(F)c2)nc1` (stereo not shown) [Example 150, N-[8-(1H-Benzimidazol-2-yl)-1-oxa-8-azaspiro[4.5]dec-3-yl]-6-(3-fluorophenyl)nicotinamide], the IC50 was 2.88 nM.

On to `Cc1ccccc1CNC(=O)c1ccc(-c2ccccc2)nc1` [Example 151, N-(2-Methylbenzyl)-6-phenylnicotinamide], for which the IC50 came out at 1.88 nM.

Regarding `O=C(NCc1coc(-c2ccccc2)n1)c1ccc(-c2cccc(F)c2)nc1` [Example 152, 6-(3-Fluorophenyl)-N-[(2-phenyl-1,3-oxazol-4-yl)methyl]nicotinamide], the IC50 stood at 4.49 nM.

Take `Cc1ccccc1CNC(=O)c1ccc(-c2cccc(F)c2)nc1` [Example 153, 6-(3-Fluorophenyl)-N-(2-methylbenzyl)nicotinamide]: the IC50 came to 2.99 nM.

As to `O=C(NCc1ccc(Cl)c(Cl)c1)c1ccc(-c2cccc(F)c2)nc1` [Example 154, N-(3,4-Dichlorobenzyl)-6-(3-fluorophenyl)nicotinamide], the half-maximal inhibitory concentration (IC50) was 43.7 nM.

Turning to `CCOC(=O)C(CNC(=O)c1ccc(-c2cccc(F)c2)nc1)C1CCCC1` (stereo not shown) [Example 155, Ethyl 2-cyclopentyl-3-({[6-(3-fluorophenyl)pyridin-3-yl]carbonyl}amino)propanoate], the IC50 amounted to 5.9 nM.

With `O=C(NCCCN1CCCC1=O)c1ccc(-c2cccc(F)c2)nc1` [Example 156, 6-(3-Fluorophenyl)-N-[3-(2-oxopyrrolidin-1-yl)propyl]nicotinamide], the IC50 was 15.7 nM.

As to `CCOC(=O)CC(C)NC(=O)c1ccc(-c2cccc(F)c2)nc1` (stereo not shown) [Example 157, Ethyl 3-({[6-(3-fluorophenyl)pyridin-3-yl]carbonyl}amino)butanoate], the IC50 worked out at 8.79 nM.

With `CN(C)CCNC(=O)c1ccc(-c2cccc(F)c2)nc1` [Example 158, N-[2-(Dimethylamino)ethyl]-6-(3-fluorophenyl)nicotinamide], the concentration for half-maximal inhibition (IC50) was 337 nM.

Regarding `CCOC(=O)C1(NC(=O)c2ccc(-c3cccc(F)c3)nc2)CCOCC1` [Example 159, Ethyl 4-({[6-(3-fluorophenyl)pyridin-3-yl]carbonyl}amino)tetrahydro-2H-pyran-4-carboxylate], the IC50 was 391 nM.

Turning to `O=C(NC1CCN(Cc2ccc(Cl)c(Cl)c2)C1=O)c1ccc(-c2cccc(F)c2)nc1` (stereo not shown) [Example 160, N-[1-(3,4-Dichlorobenzyl)-2-oxopyrrolidin-3-yl]-6-(3-fluorophenyl)nicotinamide], the IC50 is 40.8 nM.

`CN(C)C(=O)CNC(=O)c1ccc(-c2cccc(F)c2)nc1` [Example 161, N-[2-(dimethylamino)-2-oxoethyl]-6-(3-fluorophenyl)nicotinamide]: the concentration for half-maximal inhibition (IC50) came to 88 nM.

As for `CCOC(=O)CC(NC(=O)c1ccc(-c2cccc(F)c2)nc1)c1ccc(OC)cc1` (stereo not shown) [Example 162, Ethyl 3-({[6-(3-fluorophenyl)pyridin-3-yl]carbonyl}amino)-3-(4-methoxyphenyl)propanoate], the 50% inhibitory concentration (IC50) was determined as 19.6 nM.

With `CCOC(=O)C(CNC(=O)c1ccc(-c2cccc(F)c2)nc1)c1c(F)cccc1F` (stereo not shown) [Example 163, Ethyl 2-(2,6-difluorophenyl)-3-({[6-(3-fluorophenyl)pyridin-3-yl]carbonyl}amino)propanoate], the IC50 came out at 146 nM.

Take `O=C(NCCN1CCCCC1=O)c1ccc(-c2cccc(F)c2)nc1` [Example 164, 6-(3-Fluorophenyl)-N-[2-(2-oxopiperidin-1-yl)ethyl]nicotinamide]: the IC50 was determined as 9.13 nM.

For the compound `COC(=O)CNC(=O)[C@H](C)NC(=O)c1ccc(-c2cccc(F)c2)nc1` [Example 165, Methyl N-{[6-(3-fluorophenyl)pyridin-3-yl]carbonyl}-L-alanylglycinate], the IC50 was found to be 20.8 nM.

Regarding `CCOC(=O)CC[C@@H](NC(=O)c1ccc(-c2cccc(F)c2)nc1)C(=O)OCC` [Example 166, Diethyl N-{[6-(3-fluorophenyl)pyridin-3-yl]carbonyl}-D-glutamate], the half-maximal inhibitory concentration (IC50) came to 2.57 nM.

Regarding `CS(=O)(=O)Cc1noc(CNC(=O)c2ccc(-c3cccc(F)c3)nc2)n1` [Example 167, 6-(3-Fluorophenyl)-N-({3-[(methylsulfonyl)methyl]-1,2,4-oxadiazol-5-yl}methyl)nicotinamide], the IC50 amounted to 285 nM.

Consider `CN(C)CC(C)(C)CNC(=O)c1ccc(-c2cccc(F)c2)nc1` [Example 168, N-[3-(Dimethylamino)-2,2-dimethylpropyl]-6-(3-fluorophenyl)nicotinamide], for which the IC50 worked out at 175 nM.

Turning to `O=C(NCCN1CCOCC1)c1ccc(-c2cccc(F)c2)nc1` [Example 169, 6-(3-Fluorophenyl)-N-(2-morpholin-4-ylethyl)nicotinamide], the IC50 came to 43.5 nM.
